How the values were obtained:
pea mutant rms1 = assay: Inhibition of branching in the pea, application directly on the axillary bud; format: in vivo, Pisum sativum L.; conditions: for bud growth inhibition (length of bud/branch at node 3, 8 days after treatment at node 3): Experiment 3, FIG. 5
Experimental: Generally, in the pea, the first two scales are considered to be the first two nodes, the cotyledonary node being node 0.
The rms1 mutant is an “SMS” signal biosynthesis mutant, repressing branching of the plant.
Tests for activity on the inhibition of branching were carried out in the following way.
The strigolactone-deficient rms1 (ccd8) pea mutants described in Beveridge et al., 1997, were used for the test (M3T884 line derived from the Térèse variety).
The activity of the compounds (IIa), (II′d) and (II′e) in accordance with the invention and of the comparative compound GR24 was evaluated at respective doses of 10 nM, 100 nM and 1 μM, by treatment at node 3. […]
24 plants were sown per treatment. 8 days after sowing, the treatment was carried out on the axillary bud at node 3, by application of 10 μl of each solution to be tested, directly on the bud, by means of a micropipette. The lateral outgrowths at nodes 1 and 2 were removed in order to encourage the growth of the axillary buds at the higher nodes. […]
The activity of the compounds (IIa), (IIb), (IIc), (II′d), (II′e) and (II′f) in accordance with the invention was evaluated at respective doses of 100 nM and 1 μM, by treatment at node 3.
For this, solutions containing each compound to be tested, in 1% acetone, 4% propylene glycol 1450 and 50% ethanol, were used.
The activity of the compounds (IIa), (IIIa), (IIIb) and (IIIc) in accordance with the invention, and also of GR24 as comparative compound, was evaluated at respective doses of 100 nM and 1 μM, by treatment at node 3, according to the protocol described above with reference to experiment 2.
A sample consisting only of the solvent, and without active compound, was also tested as negative control, termed “CTL 0”.
In this experiment, the activity of the compound (IIIa) in accordance with the invention, and also of GR24 as comparative compound, was evaluated at respective doses of 1 nM, 10 nM, 100 nM and 1 μM, by treatment at node 3, according to the protocol described above with reference to experiment 2, for doses of 10 nM, 100 nM and 1 μM of compounds.
A sample consisting only of the solvent, and without active compound (“CTL 0”) was also tested as a negative control. A nontreated (“NT”) control was also carried out.
(§1) A dose-response test for evaluating the activity of the compounds by deposition at node 3 was carried out according to the protocol described above with reference to experiment 2, for the compound in accordance with the invention (IIa) and for the comparative compounds GR24, Comp. 3 and Comp. 4. Concentrations of 10 nM, 100 nM and 1 μM were tested.
A sample consisting only of the solvent, and without active compound (“CTL 0”), was also tested as a negative control. A nontreated (“NT”) control was also carried out.
as §1, with “Comp. 5” for “Comp. 3”, “Comp. 6.” for “Comp. 4.”, “10 nM and” for “10 nM,”, “nM” for “nM and 1 μM”, “tested. […]” for “tested.”
The sprouting of the axillary buds at node 4 was measured 8 days after the treatment by means of a digital sliding caliper.
The activity of the compound (IIIa) in accordance with the invention on bud growth at node 3 was evaluated at a dose of 1000 nM by treatment at node 3. The GR24 compound was tested at the same concentration as comparative compound. […]

Phelipanche ramosa pv T = assay: Germinative activity on parasitic plants; format: in vivo; conditions: counted after 4 days
Experimental: (§2) In this example, the germinative activity of the compounds in accordance with the invention (IIa) and (IIIb) and of the comparative compound GR24 was evaluated on the parasitic plants: Orobanche cumana, Orobanche minor, Striga hermonthica, Phelipanche ramosa (pv T and pv C).
(§3) The test protocol used was the following.
(§4) Two populations of Phelipanche ramosa were used in this study, pathovar (pv) C and T, described in the publication by Benharrat et al. (2005). Seeds of Phelipanche ramosa pathovar C were collected at Saint Martin de Fraigneau, France, on broomrapes parasitizing winter oilseed rape (Brassica napus L.) in 2005 and seeds of Phelipanche ramosa pathovar T were collected in Sarthe, France, on broomrapes developing on hemp (Cannabis sativa L.) in 2007.
(§5) The seeds are stored dry in the dark at 25° C.
(§6) The compounds to be studied were resuspended in acetone at 10 mmol·l^−1, then diluted with water to 1 mmol·l^−1 (water/acetone; v/v; 99/1). Dilutions of 1×10^−3 mol·l^−1 to 1×10^−15 mol·l^−1 were then prepared in a water/acetone mixture (v/v; 99/1). Seeds of parasitic plants were surface-sterilized according to the protocol described in the publication by Vieira Dos Santos et al. (2003), then resuspended in sterile water (10 g·l^−1) and distributed on a 96-well plate (in a proportion of 50 μl, i.e. approximately 100 seeds per well). After preconditioning (7 days, 21° C., in the dark, plate hermetically sealed, except for the seeds of S. hermonthica, which were preconditioned at 30° C.), the compounds to be studied were added and the volumes adjusted to 100 μl with water (water/acetone; v/v; 999/1).
(§7) In a plate, a range of concentrations from 10^−13 mol·l^−1 to 10^−6 mol·l^−1 was applied for GR24 and (IIa) and from 10^−12 to 10^−5 mol·l^−1 for (IIIb). Controls were carried out with a water/acetone mixture (v/v; 999/1) and without seeds. The plates were incubated so as to allow germination (21° C., in the dark or 30° C. for Striga hermonthica.). After 4 days, the seeds which had germinated were counted under a stereomicroscope (SZX10, Olympus). The seeds were considered to have germinated when the radicle was sticking out of the seed tegument. Each germination test was repeated at least 3 times. For each compound tested, dose-response curves (g=f(c), where g is the germination percentage and c the concentration (mol·l^−1)), and the EC50 (median effective concentration) were modeled on the basis of a 4-parameter logistic curve calculated with SigmaPlot® 10.0.
(§8) The percentages of maximum germination induced by the compounds tested for each parasitic plant were determined.

Phelipanche ramosa pv C = assay: Germinative activity on parasitic plants; format: in vivo; conditions: counted after 4 days
Experimental: as §2, §3, §4, §5, §6, §7, §8

Orobanche minor = assay: Germinative activity on parasitic plants; format: in vivo; conditions: counted after 4 days
Experimental: as §2, §3
(§9) Seeds of Orobanche cumana Wallr. were collected from broomrapes parasitizing sunflower (Helianthus annuus L.), at Longeville-sur-mer, France, in 2009; seeds of clover broomrape (Orobanche minor Sm.) from a parasite of red clover (Trifolium pratense L.) were obtained from Professor K. Yoneyama (Utsunomiya University, Japan).
as §5, §6, §7, §8

Orobanche cumana = assay: Germinative activity on parasitic plants; format: in vivo; conditions: counted after 4 days
Experimental: as §2, §3, §9, §5, §6, §7, §8

Striga hermonthica = assay: Germinative activity on parasitic plants; format: in vivo; conditions: counted after 4 days, 30° C.
Experimental: as §2, §3
Seeds of Striga hermonthica (Del.) Benth were collected at Gadarif, Eastern Sudan, in 1999.
as §5, §6
as §7, with “The seeds were considered to have germinated when the radicle was sticking out of the seed tegument. Each germination test was repeated at least 3 times.” left out
as §8

MRC5 cells = assay: In vitro cytotoxicity study on MRC5 cells (MTS); format: cell-based, human; conditions: Homo sapiens, MRC5, 72 hours, ± standard error, read-out: Percentage inhibition of MRC5 cell growth; for inhibition at 100 µM: 10^−4M; for inhibition at 10 µM: 10^−5M
Experimental: The cytotoxicity of the compound (IIa) according to the invention, and that of GR24 and of GR5 as comparative compounds, was evaluated in vitro, at concentrations of 10^−4 M and 10^−5 M, on MRC5 cells, in DMSO, in the following way.
MRC5 cells (human lung (fibroblasts) were cultured in Dulbecco's modified Eagle medium (DMEM) supplemented with: 25 mM of glucose, 10% (v/v) of fetal calf serum, 100 IU of penicillin, 100 μg/ml of streptomycin and 1.5 μg/ml of fungizone, and kept under 5% of CO2 at 37° C.
96-well plates were seeded with 2100 MRC5 cells per well in 200 μl of medium. After 24 hours, each of the compounds dissolved in DMSO was added for 72 hours, at a final concentration of 10^−4 M or 10^−5 M in a fixed volume of DMSO. The controls received an equal volume of DMSO.
The viable cell number was measured at 490 nm with the MTS reagent (Promega), and, for each compound, the concentration causing 50% inhibition of cell growth, IC50, was calculated.

pea rms1 mutants = assay: Hydroponic culture test in pea; format: in vivo, Pisum sativum L.; conditions: 8 days
Experimental: For this example, ramosus (rms1) hyperbranched pea (Pisum sativum L.) mutants were used.
More particularly, rms1 (rms1-10) hyperbranched mutant plants were used. The nutritive solution (100%) was prepared by adding the following macronutrients to 1000 l of water: HNO3 (0.28 l), (NH4)2HPO4 (120 g), Ca(NO3)2 (40 g), Mg(NO3)2 (140 g), KNO3 (550 g), (NH4)2MoO4 (0.05 g), H3BO3 (15 g), MnSO4.H2O (2 g), ZnSO4.7H2O (1 g), CuSO4.5H2O (0.25 g), Sequestrene® (10 g) (Fe-EDTA solution). The pea seeds were germinated in moist sand for 6 days, then placed in holes of a lid (35 holes/lid, 20 mm in diameter) of an opaque PVC pot containing the hydroponic culture solution (47 l, pH 5.8).
In a first experiment, acetone or the compound to be tested (dissolved in acetone) was added to the hydroponic culture solution so as to obtain a final concentration of 0 or 1 μM of compound to be tested and 0.01% of acetone.
The hydroponic culture solution was continually aerated by means of an aquarium pump and replaced each week. 8 days after the start of the treatment, the lengths of bud/branch (nodes 1 to 6) were measured with an electronic sliding caliper.
This experiment was carried out for the compounds according to the invention (IIa) and (IIIb), and also the GR24 compound as comparative compound. A negative control (<<CTL 0>>), corresponding to a treatment with the solvent alone, was also carried out.
The results (mean data on 20 plants), in terms of, on the one hand, length of the branches at nodes 3 to 5 and, on the other hand, plant height, are shown respectively in FIGS. 11 and 12.
The same experiment was carried out for the compound in accordance with the invention (II″g) and the comparative compound GR24. Dimethyl sulfoxide (DMSO) or the compound to be tested, dissolved in DMSO, was added to the hydroponic culture solution so as to obtain a final concentration of 0 or 3 μM of compound to be tested and 0.01% of DMSO.
The results (mean data on 10 to 12 plants), in terms, on the one hand, of length of the branches at nodes 3 to 4 and, on the other hand, of plant height, are shown respectively in FIGS. 13 and 14.

[1] = Experiment 1, FIG. 3, concentration of 1 μM
[2] = Experiment 2, FIG. 4, 100 nM and 1 μM

SMILES: CC1=C(C)C(Oc2ccc(Cl)cc2)OC1=O (stereo not shown) [Compound (II′d), 5-(4-chlorophenoxy)-3,4-dimethylfuran-2(5H)-one]
- inhibitory activity on bud growth (length of bud/branch at node 3, 8 days after treatment at node 3) (pea mutant rms1; [1]): exhibit an inhibitory activity on bud growth at node 3

SMILES: CC1=CC(O/C=C2/C(=O)OC3c4ccccc4C[C@H]23)OC1=O (stereo partly shown) [GR24, reference compound]
- Percentage of maximum germination induced (Phelipanche ramosa pv T): 87 ± 7%
- Percentage of maximum germination induced (Phelipanche ramosa pv C): 89 ± 6%
- Percentage of maximum germination induced (Orobanche minor): 81 ± 5%
- Percentage of maximum germination induced (Orobanche cumana): 78 ± 5%
- Percentage of maximum germination induced (Striga hermonthica): 57 ± 5%
- inhibition at 100 µM (MRC5 cells): 97 ± 1%
- inhibition at 10 µM (MRC5 cells): 0%
- plant height (pea rms1 mutants; 1 μM in hydroponic culture solution, FIG. 12): significant effect on plant height is also demonstrated, comparable between the comparative compound GR24 and the compound in accordance with the invention (IIa)

SMILES: CC(C=O)=COC1OC(=O)C(C)=C1C (stereo not shown) [Compound (IIIa), 3-((3,4-dimethyl-5-oxo-2,5-dihydrofuran-2-yl)oxy)-2-methylacrylaldehyde]
- bud growth inhibition (length of bud/branch at node 3, 8 days after treatment at node 3) (pea mutant rms1; 100 nM and 1 μM): slightly less active, exhibit, however, a high activity in terms of bud growth inhibition
- inhibitory activity on bud growth at node 3 (length of bud/branch 8 days after treatment at node 3) (pea mutant rms1; Experiment 8, FIG. 10, 1000 nM): although less than that of GR24, is highly significant

SMILES: C=C/C(C)=C/OC1OC(=O)C(C)=C1C (stereo not shown) [Compound (IIIc), (E)-3,4-dimethyl-5-((2-methylbuta-1,3-dien-1-yl)oxy)furan-2(5H)-one]
- bud growth inhibition (length of bud/branch at node 3, 8 days after treatment at node 3) (pea mutant rms1; 100 nM and 1 μM): slightly less active, exhibit, however, a high activity in terms of bud growth inhibition

SMILES: CC1=C(C)C(Oc2ccc3ccc(=O)oc3c2)OC1=O (stereo not shown) [Compound (II″g), 7-[3,4-dimethylfuran-2(5H)-one]oxycoumarin]
- length of the branches at nodes 3 to 4 (pea rms1 mutants; 3 μM in hydroponic culture solution, FIG. 13): an activity on all the branches of nodes 3 to 4, and also an effect on plant height, which are both greater than those of the comparative compound GR24
- plant height (pea rms1 mutants; 3 μM in hydroponic culture solution, FIG. 14): an effect on plant height, which are both greater than those of the comparative compound GR24

SMILES: CC1=CC(O/C=C2\CCOC2=O)OC1=O (stereo not shown) [GR5]
- inhibition at 100 µM (MRC5 cells): 66 ± 1%
- inhibition at 10 µM (MRC5 cells): 0%

SMILES: CC1=C(C)C(Sc2ccc(C(F)(F)F)cc2)OC1=O (stereo not shown) [Compound (IIc), 3,4-dimethyl-5-((4-(trifluoromethyl)phenyl)thio)furan-2(5H)-one]
- inhibitory activity on bud growth (length of bud/branch at node 3, 8 days after treatment at node 3) (pea mutant rms1; [2]): most active

SMILES: CC1=C(C)C(Sc2ccc(Br)cc2)OC1=O (stereo not shown)
- inhibitory activity on bud growth (length of bud/branch at node 3, 8 days after treatment at node 3) (pea mutant rms1; [2]): most active

SMILES: CC1=C(C)C(Oc2ccc(Br)cc2)OC1=O (stereo not shown) [Compound (II′e), 5-(4-bromophenoxy)-3,4-dimethylfuran-2(5H)-one]
- inhibitory activity on bud growth (length of bud/branch at node 3, 8 days after treatment at node 3) (pea mutant rms1; [1]): exhibit an inhibitory activity on bud growth at node 3

From patent US9532569B2 (INSTITUT NATIONAL DE LA RECHERCHE AGRONOMIQUE, priority 2012, dated 2017)
